Molecular target: T1, RIPK1 (Homo sapiens, UniProt Q13546)
T1 construct: intracellular RIPK1 and its phosphorylation during the process of inducing programmed necrosis of HT29 cells; endogenous in cells; host or cells: HT29 cells
T1 sequence (Q13546 1-671): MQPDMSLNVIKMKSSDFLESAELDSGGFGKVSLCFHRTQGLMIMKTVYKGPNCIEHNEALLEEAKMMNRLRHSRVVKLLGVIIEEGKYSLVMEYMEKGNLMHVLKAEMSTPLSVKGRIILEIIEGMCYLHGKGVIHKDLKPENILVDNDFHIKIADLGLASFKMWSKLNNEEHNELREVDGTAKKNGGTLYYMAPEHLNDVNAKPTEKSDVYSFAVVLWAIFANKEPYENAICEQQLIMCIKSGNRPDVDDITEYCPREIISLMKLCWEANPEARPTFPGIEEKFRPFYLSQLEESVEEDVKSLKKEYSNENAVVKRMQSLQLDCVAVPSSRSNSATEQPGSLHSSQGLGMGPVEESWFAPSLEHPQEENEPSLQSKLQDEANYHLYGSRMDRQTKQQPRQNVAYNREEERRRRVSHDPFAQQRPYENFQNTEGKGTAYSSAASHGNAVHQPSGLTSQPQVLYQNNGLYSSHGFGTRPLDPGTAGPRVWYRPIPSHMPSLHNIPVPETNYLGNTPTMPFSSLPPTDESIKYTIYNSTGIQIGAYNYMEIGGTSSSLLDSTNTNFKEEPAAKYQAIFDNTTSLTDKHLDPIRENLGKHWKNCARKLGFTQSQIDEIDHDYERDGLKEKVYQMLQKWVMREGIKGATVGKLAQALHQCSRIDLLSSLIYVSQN
Assay: Western Blot detection of inhibition of RIPK1 phosphorylation in HT29 cells
Format: cell-based
Details: Z-VAD-FMK/TNF-α/AT-406 induction, 7 hours
Protocol: In this assay, Western blot was used to detect the effect of the test compound on intracellular RIPK1 and its phosphorylation during the process of inducing programmed necrosis of HT29 cells to verify the inhibitory effect of the compound on RIPK1 phosphorylation.
a) HT29 cells in good condition were collected, resuspended in McCoy's 5A complete medium and counted. The cells were seeded in a 12-well plate at a cell density of 1×10 6/1 mL/well, and placed in a 37° C. cell culture incubator overnight.
b) Z-VAD-FMK (at final concentration of 20 μM) was added to the above 12-well plate. After 30 minutes, the inducer (where the final concentration of TNF-α was 20 ng/mL, and the final concentration of AT-406 was 100 nM), and the test compound of different concentrations was then added, and incubated in a cell incubator at 37° C. for 7 hours.
c) Preparation of complete lysate: A tube of aliquoted RIPA lysate was thawed, and then phosphatase inhibitor and Roche protease inhibitor were added respectively (phosphatase inhibitor: RIPA=1:100; Roche protease inhibitor: RIPA=4:100); the mixture was placed on ice for later use; […]
g) The BCA kit was used for detection and the protein concentration was calculated; […]
7. […] The membrane was cut according to the molecular weight of the protein to be detected based on the marker band indication. […]

effect on RIPK1 total protein: no obvious inhibitory effect on RIPK1
Structure (SMILES): O=C(C1CCN(c2cc(-c3cc(OCCCO)ccc3F)ccn2)CC1)N1N=CC[C@H]1c1cc(F)cc(F)c1 (racemic) [Example 40]
inhibition of RIPK1 phosphorylation (Western Blot, ratio to total RIPK1): directly inhibits the phosphorylation activity of RIPK1 and shows a dose-dependent relationship
